Measured values from patent US20150159115A1, “PURIFICATION OF DPA ENRICHED OIL” (Omega Protein Corporation, priority 2013, published 2015).
Entries after “also recorded” stand apart in the source; their conditions may differ. Like-named read-outs stand apart in the source and are kept apart here.

Columns and labels:
[1] = system: LDLr−/− mice; assay: Fluorescence intensity of inflammatory markers in brain microvessel (cerebrovasculature) of mice; type: in vivo, mouse; conditions: relative to control = 1.00
Text: (§1) 48 male LDLr−/− mice (8-10 weeks of age, ˜20 g) were obtained from Jackson Laboratories (stock #2207) and allowed to acclimate to the cages, room, and feeding design for 12 days. After the acclimation period mice were weighed and randomly assigned to one of six treatments. Mice were fed an isolipid (20% total fatty acids w/w), isonitrogenous, and 0.2% cholesterol (w/w) diet, which is considered atherogenic (Ain76, 58TQ TestDiet®) as a base diet. This base diet was formulated to meet or exceed all nutrient and energy requirements for a growing mouse. The treatments were added to the base diet (0.76% w/w of the total diet) and was made once at the beginning of the study, separated into weekly aliquots, stored at −80° C., allowed to thaw at 4° C. for 2 days prior to feeding, and stored at 4° C. until fed. A sample from each weekly aliquot was collected, composited, and archived for fatty acid analysis at a later date. The treatments were as follows: (1) Negative control diet, 3.5% of the total fatty acids were replaced with milk fat (the only source of fat in the base diet), (2) 3.5% of the total fatty acids were replaced with purified ethyl esters of DHA, (3) 3.5% of the total fatty acids were replaced with purified ethyl esters of DPAn3, (4) 3.5% of the total fatty acids were replaced with purified ethyl esters of EPA, (5) 3.5% of the total fatty acids were replaced with omega-3 fatty acids from Lovaza® (GlaxoSmithKline), and (6) 3.5% of the total fatty acids were replaced with omega-3 fatty acids from ΩmegaActiv® DPA 5000 (Omega Protein Inc., Houston, Tex.; Table 1).
(§2) The objectives of these studies were to compare the effects of replacing 3.5% of the total fatty acids with DPAn3, EPA, DHA, and commercial combinations of EPA, DPAn3, and DHA on serum lipid profiles, brain inflammation, and the development of atherosclerosis in LDLr−/− mice fed an atherogenic diet for 20 weeks and [2] to determine if DPAn3 enrichment of macrophages (50 and 100 μM) changed their lipopolysaccharide stimulated inflammatory profile relative to saturated (S), mono-unsaturated (MU), and other omega-6 and omega-3 poly-unsaturated (PU) fatty acids (FA).
Flourescence intensity (relative) of brain microvessel

[2] = system: LDLr−/− mice; assay: TNF-α concentration in adipose tissue of mice fed different omega-3 products; conditions: mouse, in vivo
Text: as §1
TNF-α concentration in adipose tissue of mice fed with different omega-3 products

[3] = system: LDLr−/− mice; assay: Fluorescence intensity of inflammatory markers in brain hippocampus of mice; type: in vivo, mouse; conditions: relative to control = 1
Text: as §1, §2

[4] = system: THP-1 cells; assay: Prostaglandin E2 production by LPS-stimulated THP-1 macrophages after fatty acid incubation; type: cell-based; conditions: fatty acid 50 and 100 μM 24 h, then LPS 24 h
Experimental: (§3) THP-1 cells were maintained in RPMI 1640+2 mM L-Glutamine, 10 mM HEPES, 1 mM sodium pyruvate, 4500 mg/L glucose, and 1500 mg/L sodium bicarbonate; supplemented with 3.5 μL/L of 2-mercaptoethanol and 10% fetal bovine serum (FBS). Cell line was maintained in 75 cm^2 filtered cap flasks in a 37° C. incubator with 5% CO2. THP-1 cells were seeded in 24 well plates at 5×10^5 cells/mL using 600 μL/well and allowed to differentiate into macrophages (MΦ) for 72 h with phorbol 12-myristate 13-acetate (PMA) at a final concentration of 50 ng/mL.
(§4) Experiment 2: Previously differentiated MΦ were incubated with fatty acids as described in ‘Experiment 1’ for 24 hours. At the 24 h time point the cells were then stimulated with lipopolysaccharide from E. coli 0111:B4 for another 24 hours. The plates were centrifuged at 1200×g for 5 minutes and supernatant was then collected and analyzed for cytokines. The MΦ were scraped off the plates and fatty acids were isolated as described in the ‘Animal Portion’. The fatty acid profiles of the MΦ were determined as previously described (Wang, et al., 2010, Clin. Nutr., DOI: 10.1016/j.clnu.2013.04.009).
The objective of this study was to determine if docosapentaenoic acid n-3 (DPAn3) enrichment of macrophages (MΦ) changed their inflammatory response relative to saturated (S), mono-unsaturated (MU), and other poly-unsaturated (PU) fatty acids (FA). […]

[5] = system: murine peritoneal macrophages; conditions: cited from earlier work
[6] = system: THP-1 cells; assay: Cytokine (TNF-α, MCP-1, IL-6) release by LPS-stimulated THP-1 macrophages after fatty acid incubation; type: cell-based; conditions: for Release of cytokines (TNF-α, MCP-1, IL-6) by THP-1 macrophages compared to control macrophages: fatty acid 50 and 100 μM 24 h, then LPS 24 h; for Release of cytokines by THP-1 macrophages at increasing fatty acid concentration: highest 100 μM
Experimental: as §3
Experiment 1: Prior to incubation with individual fatty acids, the cells were starved for 8 h in a 2% lipo-free FBS RPMI medium. Individual fatty acids were added in duplicate into the 24 well plate at two concentrations, 50 μM and 100 μM. Every assay was cultured in three runs with duplicates in each run pooled. After incubation for 24 h with fatty acids the MΦ were scraped off the plates and fatty acids were isolated as described in the ‘Animal Tests’ portion of this Example. The fatty acid profiles of the MΦ were determined as previously described (Wang, et al., 2010, Clin. Nutr., DOI: 10.1016/j.clnu.2013.04.009).
as §4
A linear mixed effects model was used in R, lme in the nlme package, for estimating treatment effects on cytokine production in LPS stimulated THP-1 cells. The fixed effects fit were treatment, FA concentration, and when significant LPS concentration was fit as a covariate, the plate cells were cultured on nested within run was fit as a random effect. Least squares means were analyzed as outlined above and pairwise comparisons were made between treatments for FA concentration, or where significant LPS concentration.
The objective of this study was to determine if docosapentaenoic acid n-3 (DPAn3) enrichment of macrophages (MΦ) changed their inflammatory response relative to saturated (S), mono-unsaturated (MU), and other poly-unsaturated (PU) fatty acids (FA). Differentiated THP-1 cells were incubated with one of 11 FA (50 and 100 μM) of varying degrees of unsaturation or no FA for 24 h prior to 24 h of stimulation with lipopolysaccharide from E. coli. Fatty acids were collected from MΦ without stimulation to determine the fatty acid profiles. Media was collected from MΦ post-stimulation and probed for prostaglandin E2, and cytokines, including tumor necrosis factor-α, monocyte chemoattractant protein-1, and interleukin-6. Prostaglandin E2 production was greater (P<0.05) for AA than all other FA, and omega-3 PUFA decreased (P<0.01) PGE2 compared to n6 PUFA and all other FA.

SMILES | IL-8 fluorescence intensity (relative) of brain microvessel [1] | MCP-1 fluorescence intensity (relative) of brain microvessel [1] | TNF-α Concentration in adipose tissue [2] [pg/μg protein] | IL-8 fluorescence intensity (relative) of brain hippocampus [3] | TIMP2 fluorescence intensity (relative) of brain hippocampus [3] | TNF-α fluorescence intensity (relative) of brain hippocampus [3] | Release of cytokines (TNF-α, MCP-1, IL-6) by THP-1 macrophages compared to control macrophages [6] | Release of cytokines by THP-1 macrophages at increasing fatty acid concentration [6] | also measured
CC/C=C\C/C=C\C/C=C\C/C=C\C/C=C\C/C=C\CCC(=O)O [DHA, docosahexaenoic acid] | 0.86 | 0.93 | 0.82 | 0.46 | 0.23 | 0.29 | – | – | –
CC/C=C\C/C=C\C/C=C\C/C=C\C/C=C\CCCC(=O)O [EPA, eicosapentaenoic acid] | 0.93 | 0.96 | 0.58 | 0.72 | 0.63 | 0.31 | – | – | –
CCCCC/C=C\C/C=C\C/C=C\C/C=C\CCCC(=O)O [AA, Arachidonic acid] | – | – | – | – | – | – | most potent inhibitor of cytokine release followed by AA | – | Prostaglandin E2 production by THP-1 macrophages [4]: greater; also recorded: increased greatly; TNF-α production ([5]; AA at 2-5 μM, increasing LPS concentrations): completely inhibited; TNF-α production ([5]; AA at concentrations as low as 1 μM): decreased TNF-α production; Release of cytokines (TNF-α, MCP-1, IL-6) by THP-1 macrophages compared to control macrophages ([6]; listed as Arachidonic acid): decreased cytokine expression, but not to the extent of EPA supplementation
CCCCCCCCCCCCCCCCCC(=O)O [C18:0] | – | – | – | – | – | – | did not change the amount of cytokines released | did not change, or increased the amount of cytokines released | –
CCCCCCCC/C=C\CCCCCCCC(=O)O [oleic acid] | – | – | – | – | – | – | did not change the amount of cytokines released; also recorded: did not change inflammatory cytokine release | did not change, or increased the amount of cytokines released | –
CC/C=C\C/C=C\C/C=C\C/C=C\C/C=C\CCCCCC(=O)O [DPA, docosapentaenoic acid] | 0.96 | 0.92 | 0.41 | 0.70 | 0.17 | 0.28 | – | – | –
CCCCCCCCCCCCCCCC(=O)O [C16:0] | – | – | – | – | – | – | did not change the amount of cytokines released | did not change, or increased the amount of cytokines released | –
